Laboratory results published in article PMC6383986, “Fragment-Based Covalent Ligand Screening Enables Rapid Discovery of Inhibitors for the RBR E3 Ubiquitin Ligase HOIP” (Journal of the American Chemical Society, 2019).

Columns and labels:
[1] = test system: E1, UbcH5c, UbcH7, HOIL-1L, RNF144A, HHARI, TRIAD3A RBR domains, NEDD4L, E6AP, OTULIN, CYLD-1; test: LC-MS-based enzyme counter screen; format: binding; conditions: 2-fold excess, positive control
Method: 0.1% formic acid in water. The samples were analyzed on a Q Exactive MS (Thermo Fisher) coupled to an Easy-nLC chromatographic system (Thermo Fisher) with a nano ESI source (Thermo Fisher). Each sample (2 µL) was injected and trapped on a C18 Acclaim pepMap 100 enrichment column (75 µm id × 2 cm, 3 µm nanoviper, Thermo Fisher). The samples were transferred to a C18 Acclaim PepMap RSLC analytical column (75 µm id × 15 cm, 2 µm, Thermo Fisher) at 300 nL/min. Mobile phase A (0.1% Formic acid in water, v/v); mobile phase B (0.1% […]
min (70-95% B), 56-61 min (95% B). The nanospray ionisation source was operated in the positive mode with spray voltage set at 2 kV, and heated capillary at 250 °C. The Q Exactive was operated in the data dependent mode and the top 15 most intense ions were subjected to HCD fragmentation with normalised collision energy set at 26%. The MS1 scans were performed at a resolution of 70 000 from 400-1600 m/z, automatic gain control (AGC) value 3 e6, maximum injection time 100 ms. […]
Compounds (1) and (5) were screened against E1, the E2s UbcH5c and UbcH7, the RBR domains of the E3 ligases HOIP, HOIL-1L, RNF144A, HHARI and TRIAD3A, the HECT E3 ligases NEDD4L and E6AP, and the DUBs OTULIN and CYLD-1. […] The samples were analyzed after 0.5 and 24 h incubation. […]

[2] = test system: untransfected HEK293T cells; test: CellTiter-Glo Luminescent cell viability assay, untransfected cells; format: cell-based; conditions: 17 h
Method: Separately, untransfected HEK293T cells were incubated with compounds (1), (11a) and (17) for 17 h, and the cell viability determined using the CellTiter-Glo® Luminescent Cell Viability Assay as described above. Average data from three independent experiments each done in triplicate were plotted as percentage cell viability normalized to DMSO control with GraFit (v.7) against different compound concentrations and fitted using the IC50-4 parameter logistic (Supplementary […]
Supplementary Figure S14. A-D) Uncropped concentration-response graphs (A and D from Figure 6D) and Western blots from the NF-κB reporter and cell viability assays. HEK293T cells transfected with His6-tagged HOIP, HOIL-1L and SHARPIN (H/H/S) were treated with compounds (11a) and (17) for 17 h and the relative NF-κB activity and cell viability was plotted against compound concentration. E) Cell viability of untransfected HEK293T cells treated with compound (1), (11a) and (17) for 17 h. The observed cell toxicity for compound (1) was in line that previously […]
(1 picture or pasted object on this page, not shown here)

Compound: Cc1ccc(S(=O)(=O)/C=C/C#N)cc1 [Compound 1, BAY 11–7082, reference compound]
- labeling of counter screen proteins [1]: rapid and extensive labeling for most proteins
- cell viability [2]: cell toxicity
